pIC50: −log10 of the molar value.
Assays:
[1] = test system: Hep3B cells; assay: EPO production assay (ELISA of culture supernatant); format: cell-based; conditions: Homo sapiens, 3 μmol/L test compound, 48 hours, relative to control (0.1% DMSO), read-out: EPO production stimulation rate with 3 μmol/L test compound
Description: The stimulatory effect of the compound onEPO production was determined as follows using Hep3B cells.
Cells were seeded on 96 well plates at 40000 cells/well, and the plate was incubated overnight in MEM medium containing 10% fetal bovine serum (FBS) at 37° C. under 5% CO2. The next day, the medium was replaced with MEM containing 0.5% FBS, followed by addition of test compound. The test compound was dissolved in dimethyl sulfoxide and added to the cell so that the final concentration of dimethyl sulfoxide was 0.1%. After incubation for additional 48 hours, the culture supernatant was collected, and EPO contained in the supernatant was determined using ELISA kit (EPO ELISA Kit 11-693-417-001, Roche Co.). The results were expressed as stimulation rate of EPO production (fold), which was calculated as the relative value of the EPO production with 3 μmol/L of the test compound compared to the EPO production without stimulation (control).
Stimulation rate of EPO production (fold)=(EPO production with addition of test compound)/(EPO production of control)

[2] = target: T1, human HIF-PHD2 (Homo sapiens, UniProt Q9GZT9); assay: HIF-PHD inhibition assay (fluorescence polarization), human HIF-PHD2; format: biochemical; conditions: 2-oxoglutaric acid 3.33 μmol/L
T1 construct: purchased CrystalGenomics Ltd
Outline: (§1)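 Activity was derived as the fluorescence polarization (mP) after enzyme addition minus that measured before enzyme addition. Probe bore a 5′-fluoresceinamide (FAM) label with an aminocaproic acid (ACA) linker.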

[3] = target: T2, human HIF-PHD3 (Homo sapiens, UniProt Q9H6Z9); assay: HIF-PHD inhibition assay (fluorescence polarization), human HIF-PHD3; format: biochemical; conditions: 2-oxoglutaric acid 166 μmol/L
T2 construct: purchased CrystalGenomics Ltd
Outline: as §1

T1 sequence (Q9GZT9 2-426 limits assumed): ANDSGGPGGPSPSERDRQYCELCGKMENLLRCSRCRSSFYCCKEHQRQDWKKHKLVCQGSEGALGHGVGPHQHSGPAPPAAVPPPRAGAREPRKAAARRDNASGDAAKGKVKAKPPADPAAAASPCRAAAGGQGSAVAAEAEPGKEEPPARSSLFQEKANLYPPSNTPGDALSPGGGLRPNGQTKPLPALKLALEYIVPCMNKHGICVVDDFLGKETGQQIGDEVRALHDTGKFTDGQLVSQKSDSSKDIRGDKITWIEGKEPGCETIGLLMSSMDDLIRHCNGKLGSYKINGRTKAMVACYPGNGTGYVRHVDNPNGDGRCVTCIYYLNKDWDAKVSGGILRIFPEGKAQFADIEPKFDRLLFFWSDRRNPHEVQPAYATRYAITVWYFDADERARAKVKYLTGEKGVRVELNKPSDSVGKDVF
T2 sequence (Q9H6Z9 whole entry): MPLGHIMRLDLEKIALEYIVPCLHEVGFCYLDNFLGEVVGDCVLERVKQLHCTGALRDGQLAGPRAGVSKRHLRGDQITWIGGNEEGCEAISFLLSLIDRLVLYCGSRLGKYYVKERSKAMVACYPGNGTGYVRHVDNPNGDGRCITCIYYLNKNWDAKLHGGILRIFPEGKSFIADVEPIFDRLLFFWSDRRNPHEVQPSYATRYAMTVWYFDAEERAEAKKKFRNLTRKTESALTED

| SMILES | pIC50 [2] | pIC50 [3] | fold induction at 3 µM [1] |
| --- | --- | --- | --- |
| Cc1ccc(C(C(C)C)n2ncc3nc(-n4cc(C(=O)O)cn4)nc(O)c32)cc1 (single isomer, unassigned) [Example 26] | 7.18 | 5.82 | 3.4 |
| CCC(c1ccc(Cl)cc1)n1ncc2nc(-n3cc(C(=O)O)cn3)nc(O)c21 (single isomer, unassigned) [Example 323] | 7.66 | 6.52 | 3.8 |
| CCC(c1ccc(C(F)(F)F)cc1)n1ncc2nc(-n3cc(C(=O)O)cn3)nc(O)c21 (single isomer, unassigned) [Example 327] | 6.54 | 5.92 | 9.4 |
| O=C(O)c1cnn(-c2nc3cnn(Cc4ccc(Cl)c(Cl)c4)c3c(=O)[nH]2)c1 [Example 1, 1-[1-(3,4-dichlorobenzyl)-7-hydroxy-1H-pyrazolo[4,3-d]pyrimidin-5-yl]-1H-pyrazole-4-carboxylic acid] |  | 6.80 | 4.6 |
| COc1ccc(Cn2ncc3nc(-n4cc(C(=O)O)cn4)nc(O)c32)cc1 [Example 3] | 7.51 | 6.80 | 2.1 |
| C[C@H](c1ccc(Cl)c(Cl)c1)n1ncc2nc(-n3cc(C(=O)O)cn3)nc(O)c21 [Example 22] |  | 6.27 | 6.9 |
| C[C@@H](c1ccc(Cl)c(Cl)c1)n1ncc2nc(-n3cc(C(=O)O)cn3)nc(O)c21 [Example 23] |  | 6.66 | 3.2 |
| O=C(O)c1cnn(-c2nc3cnn(Cc4ccc(-c5ccccc5)cc4)c3c(=O)[nH]2)c1 [Example 55] |  | 7.62 | 34 |
| O=C(O)c1cnn(-c2nc3cnn(Cc4ccc(-c5ccccc5F)c(F)c4)c3c(=O)[nH]2)c1 [Example 93] |  | 6.89 | 23 |
| Cc1ccc(C(C)(C)Cn2ncc3nc(-n4cc(C(=O)O)cn4)nc(O)c32)cc1 [Example 119] | 6.62 |  | 3.7 |
| Cc1nn(CC2CCCCC2)c2c(O)nc(-n3cc(C(=O)O)cn3)nc12 [Example 230] | 7.08 |  | 2 |
| O=C(O)c1cnn(-c2nc3cn(Cc4ccc(-c5ccccc5)cc4)nc3c(=O)[nH]2)c1 [Example 237] |  | 7.42 | 4.3 |
| Cc1nn([C@@H](C)c2cc(F)ccc2F)c2c(O)nc(-n3cc(C(=O)O)cn3)nc12 [Example 453] | 6.60 | 5.82 |  |
| CC[C@@H](c1ccc(Cl)c(Cl)c1)n1nc(C)c2nc(-n3cc(C(=O)O)cn3)nc(O)c21 [Example 455] | 7.19 | 6.10 |  |
| C[C@@H](c1ccc(C(F)(F)F)cc1)n1nc(C2CC2)c2nc(-n3cc(C(=O)O)cn3)nc(O)c21 [Example 456] | 7.28 | 6.37 |  |
| C[C@@H](c1ccc(F)cc1)n1nc(C2CC2)c2nc(-n3cc(C(=O)O)cn3)nc(O)c21 [Example 457] | 6.96 | 6.15 |  |

| SMILES | pIC50 [2] | pIC50 [3] | fold induction at 3 µM [1] |
| --- | --- | --- | --- |
| C[C@@H](c1cccc(F)c1)n1nc(C2CC2)c2nc(-n3cc(C(=O)O)cn3)nc(O)c21 [Example 458] | < 6.52 | 5.96 |  |
| C[C@@H](c1ccc(F)c(F)c1)n1nc(C2CC2)c2nc(-n3cc(C(=O)O)cn3)nc(O)c21 [Example 459] | 6.96 | 6.37 |  |
| C[C@@H](c1cc(F)ccc1F)n1nc(C2CC2)c2nc(-n3cc(C(=O)O)cn3)nc(O)c21 [Example 461] | 6.64 | 5.80 |  |
| C[C@@H](c1ccc(F)c(Cl)c1)n1nc(C2CC2)c2nc(-n3cc(C(=O)O)cn3)nc(O)c21 [Example 462] | 7.09 | 6.00 |  |
| C[C@@H](c1ccc(C(F)(F)F)cc1)n1nc(C(F)(F)F)c2nc(-n3cc(C(=O)O)cn3)nc(O)c21 [Example 463] | 7.19 | 6.03 |  |
| O=C(O)c1cnn(-c2nc(O)c3c(n2)c(F)nn3CC2CCCCCC2)c1 [Example 464] | 7.77 | 6.36 |  |
| C[C@H](C1CCCCC1)n1nc(F)c2nc(-n3cc(C(=O)O)cn3)nc(O)c21 [Example 469] | 7.12 | 5.92 |  |
| Cc1nn(CC2CCC(F)(F)CC2)c2c(O)nc(-n3cc(C(=O)O)cn3)nc12 [Example 475] | 7.47 | 6.57 |  |
| C[C@H]1CC[C@H](n2nc(F)c3nc(-n4cc(C(=O)O)cn4)nc(O)c32)CC1 [Example 479] | 7.38 | 6.59 |  |
| CC[C@H]1CC[C@H](n2nc(F)c3nc(-n4cc(C(=O)O)cn4)nc(O)c32)CC1 [Example 480] | 7.33 | 6.17 |  |
| CC1(C)CCC(n2nc(F)c3nc(-n4cc(C(=O)O)cn4)nc(O)c32)CC1 [Example 481] | 7.15 | 6.32 |  |
| O=C(O)c1cnn(-c2nc(O)c3c(n2)c(F)nn3C2CCCCCCC2)c1 [Example 482] | 7.37 | 5.89 |  |
| Cc1nn([C@H]2CC[C@H](C)CC2)c2c(O)nc(-n3cc(C(=O)O)cn3)nc12 [Example 483] | 6.96 | 5.92 |  |
| Cn1ncc2nc(-n3cc(C(=O)O)cn3)nc(O)c21 [Example 485] | 6.85 | < 5.52 |  |
| CC(C)n1ncc2nc(-n3cc(C(=O)O)cn3)nc(O)c21 [Example 486] | 6.92 | 5.66 |  |
| CCC(CC)n1ncc2nc(-n3cc(C(=O)O)cn3)nc(O)c21 [Example 487] | 7.09 | 6.28 |  |

More lines, main results first:

| pIC50 [2] | pIC50 [3] | SMILES | fold induction at 3 µM [1] |
| --- | --- | --- | --- |
| 7.23 | 6.08 | CCCC(CCC)n1ncc2nc(-n3cc(C(=O)O)cn3)nc(O)c21 [Example 488] |  |
| 6.82 | 6.05 | CC(C)C(C(C)C)n1ncc2nc(-n3cc(C(=O)O)cn3)nc(O)c21 [Example 489] |  |
| 7.03 | 5.96 | CC(C)CC(CC(C)C)n1ncc2nc(-n3cc(C(=O)O)cn3)nc(O)c21 [Example 490] |  |
| 7.00 | 6.20 | CC(C)(C)Cn1ncc2nc(-n3cc(C(=O)O)cn3)nc(O)c21 [Example 491] |  |
| 6.96 | 6.36 | CCC(C)(C)Cn1ncc2nc(-n3cc(C(=O)O)cn3)nc(O)c21 [Example 492] |  |
| 7.05 | 6.06 | CCC(CC)Cn1ncc2nc(-n3cc(C(=O)O)cn3)nc(O)c21 [Example 494] |  |
| 7.39 | 6.28 | CC(C)C[C@H](C)n1ncc2nc(-n3cc(C(=O)O)cn3)nc(O)c21 [Example 496] |  |
| 7.28 | 6.05 | CCCC[C@H](C)n1ncc2nc(-n3cc(C(=O)O)cn3)nc(O)c21 [Example 497] |  |
| 6.89 | 6.12 | CC(C)(C)Cn1nc(F)c2nc(-n3cc(C(=O)O)cn3)nc(O)c21 [Example 499] |  |
| < 6.52 | 6.12 | Cc1nn(CC(C)(C)C)c2c(O)nc(-n3cc(C(=O)O)cn3)nc12 [Example 500] |  |
| < 6.52 | < 5.52 | Cn1nc(C2CCCCC2)c2nc(-n3cc(C(=O)O)cn3)nc(O)c21 [Example 501] |  |
| < 6.52 | 5.92 | Cn1nc(-c2ccccc2)c2nc(-n3cc(C(=O)O)cn3)nc(O)c21 [Example 502] |  |
| < 6.52 | < 5.52 | Cn1nc(Cc2ccccc2)c2nc(-n3cc(C(=O)O)cn3)nc(O)c21 [Example 503] |  |
| 7.29 | 6.36 | C[C@@H](c1ccc(F)cc1Cl)n1cc2nc(-n3cc(C(=O)O)cn3)nc(O)c2n1 [Example 505] |  |
